# From US20060199736A1, “Environmentally benign bioactive formulation” (priority 2002, published 2006)
# Experiments:
# [1] = cited from earlier work
# [2] = pH study of dilute solutions of VertecBio solvents with dichlorvos; format: physicochemical; conditions: solvent containing 1% dichlorvos
# Protocol: In this example, the pH of a dilute solution of an organophosphate pesticide is tracked over time. The dilution into water is done without any surfactants.
# The biosolvents were diluted in water at one, two, and three percent concentrations. The solvents, before being diluted, contained 1% dichlorvos. The VertecBio Citrus™ and Gold™ blends were made of 80% ethyl lactate and 20% d-limonene and methyl soyate respectively.
# (§1) The initial pH of the water was approximately 7.80 pH units.
# [3] = pH study of dilute solutions of VertecBio solvents in water; format: physicochemical
# Protocol: The Citrus and Gold blends were made of 80% Ethyl lactate and 20% d-limonene and methyl soyate respectively. The pH was measured at various intervals and was recorded.
# as §1
# [4] = pH study of dilute solutions of VertecBio solvents with neem oil containing azadirachtin; format: physicochemical; conditions: solvent mixed with 3% (w/w) neem oil
# Protocol: The biosolvents were mixed with 3% (w/w) neem oil containing the natural pesticide azadirachtin. These were diluted in water at one, two, and three percent concentrations. The Citrus™ and Gold™ blends were made of 80% ethyl lactate and 20% d-limonene and methyl soyate, respectively, as described above. […] The initial pH of the water was 7.80 pH units.
structure (smiles),measurement,setting,value
"CCCCNC(=O)n1c(NC(=O)OC)nc2ccccc21 [Benlate, benomyl]",½ Life at pH 5.0,[1],30 hr
same,½ Life at pH 7.0,[1],1 hr
"O=C1C2CC=CCC2C(=O)N1SC(Cl)(Cl)Cl (stereo not drawn) [Captan, captan]",½ Life at pH 5.0,[1],10 hr
same,½ Life at pH 7.0,[1],3 hr
same,½ Life at pH 8.0,[1],10 min
same,½ Life at pH 9.0,[1],2 min
"CNC(=O)CSP(=S)(OC)OC [Cygon, dimethoate]",½ Life at pH 6.0,[1],12 hr
same,½ Life at pH 9.0,[1],48 min
"CCOP(=S)(OCC)Oc1nc(Cl)c(Cl)cc1Cl [Dursban, chlorpyrofos]",½ Life at pH 5.0,[1],63 days
same,½ Life at pH 7.0,[1],35 days
same,½ Life at pH 8.0,[1],1.5 days
"CCOC(=O)C(C)O (stereo not drawn) [Ethyl Lactate, ethyl lactate]",pH of dilute solution,"[2]; 1% in water, 4 hours",7.3
same,pH of dilute solution,"[2]; 1% in water, 24 hours",7.15
same,pH of dilute solution,"[2]; 1% in water, 48 hours",7.08
same,pH of dilute solution,"[2]; 1% in water, 72 hours",6.89
same,pH of dilute solution,"[2]; 1% in water, Initial",7.72
same,pH of dilute solution,"[2]; 2% in water, 24 hours",6.92
same,pH of dilute solution,"[2]; 2% in water, 48 hours",6.55
same,pH of dilute solution,"[2]; 2% in water, 72 hours",6.04
same,pH of dilute solution,"[2]; 2% in water, Initial",7.5
same,pH of dilute solution,"[2]; 3% in water, 4 hours",6.97
same,pH of dilute solution,"[2]; 3% in water, 24 hours",6.6
same,pH of dilute solution,"[2]; 3% in water, 48 hours",6.28
same,pH of dilute solution,"[2]; 3% in water, 72 hours",5.45
same,pH of dilute solution,"[2]; 3% in water, Initial",7.51
same,pH of dilute solution,"[3]; 1% in water, 2 hours",7.25
same,pH of dilute solution,"[3]; 1% in water, 4 hours",7.10
same,pH of dilute solution,"[3]; 1% in water, 6 hours",6.95
same,pH of dilute solution,"[3]; 1% in water, 8 hours",7.11
same,pH of dilute solution,"[3]; 1% in water, 24 hours",6.78
same,pH of dilute solution,"[3]; 1% in water, 48 hours",6.75
same,pH of dilute solution,"[3]; 1% in water, 72 hours",6.56
same,pH of dilute solution,"[3]; 1% in water, Initial",7.75
same,pH of dilute solution,"[3]; 2% in water, 2 hours",7.14
same,pH of dilute solution,"[3]; 2% in water, 4 hours",7.00
same,pH of dilute solution,"[3]; 2% in water, 6 hours",6.90
same,pH of dilute solution,"[3]; 2% in water, 8 hours",6.90
same,pH of dilute solution,"[3]; 2% in water, 24 hours",6.56
same,pH of dilute solution,"[3]; 2% in water, 48 hours",6.43
same,pH of dilute solution,"[3]; 2% in water, 72 hours",5.88
same,pH of dilute solution,"[3]; 2% in water, Initial",7.65
same,pH of dilute solution,"[3]; 3% in water, 2 hours",7.01
same,pH of dilute solution,"[3]; 3% in water, 4 hours",6.90
same,pH of dilute solution,"[3]; 3% in water, 6 hours",6.78
same,pH of dilute solution,"[3]; 3% in water, 8 hours",6.79
same,pH of dilute solution,"[3]; 3% in water, 24 hours",6.47
same,pH of dilute solution,"[3]; 3% in water, 48 hours",5.93
same,pH of dilute solution,"[3]; 3% in water, 72 hours",5.47
same,pH of dilute solution,"[3]; 3% in water, Initial",7.54
same,pH of dilute solution,"[4]; 1% in water, 4 hours",7.43
same,pH of dilute solution,"[4]; 1% in water, 24 hours",6.77
same,pH of dilute solution,"[4]; 1% in water, 48 hours",6.94
same,pH of dilute solution,"[4]; 1% in water, 72 hours",6.39
same,pH of dilute solution,"[4]; 1% in water, Initial",7.59
same,pH of dilute solution,"[4]; 2% in water, 48 hours",6.74
same,pH of dilute solution,"[4]; 2% in water, 72 hours",6.02
same,pH of dilute solution,"[4]; 2% in water, Initial",7.41
same,pH of dilute solution,"[4]; 3% in water, 24 hours",6.68
same,pH of dilute solution,"[4]; 3% in water, 48 hours",6.61
same,pH of dilute solution,"[4]; 3% in water, 72 hours",5.78
same,pH of dilute solution,"[4]; 3% in water, Initial",7.31
"COP(=S)(OC)SCn1nnc2ccccc2c1=O [Guthion, azin-phos methyl]",½ Life at pH 5.0,[1],60 hr
same,½ Life at pH 9.0,[1],12 hr
"COP(=S)(OC)SCN1C(=O)c2ccccc2C1=O [Imidan, phosmet]",½ Life at pH 5.0,[1],7 days
same,½ Life at pH 7.0,[1],12 hr
same,½ Life at pH 8.0,[1],4 hr
"CCOC(=O)CC(SP(=S)(OC)OC)C(=O)OCC (stereo not drawn) [Malathion, malathion]",½ Life at pH 6.0,[1],8 days
same,½ Life at pH 7.0,[1],3 days
same,½ Life at pH 8.0,[1],19 hr
same,½ Life at pH 9.0,[1],5 hr
"CNC(=O)Oc1cccc2ccccc12 [Sevin, carbaryl]",½ Life at pH 7.0,[1],10 days
same,½ Life at pH 9.0,[1],24 hr
